Measured values reported in ChEMBL document CHEMBL1201862, “PubChem BioAssay data set” (2004).
Several values for one entry are separate records, joined by “and”; a condition that tells them apart may be missing. Equal values may be shown once.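 Compound exposure: 48 hours, 5 concentrations, 96-well plates. GI50: concentration for 50% inhibition of growth.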 Activity calls are given as the source filed them. No stated cut-off is given here; in the data, active = GI50 up to about 1.1 µM and inactive = higher. Residues, ends and D or L forms follow the SMILES beside them. *: point of attachment. Boc = CC(C)(C)OC(=O)*; OBn = c1ccc(CO*)cc1

Key:
Assay in all cases: NCI anticancer screen, dose series, 48 h
TK-10 = test system: TK-10
KM12 = test system: KM12
SK-MEL-5 = test system: SK-MEL-5
SF-539 = test system: SF-539
HCC 2998 = test system: HCC 2998
OVCAR-5 = test system: OVCAR-5
SNB-19 = test system: SNB-19
HOP-62 = test system: HOP-62
CCRF-CEM = test system: CCRF-CEM
A549 = test system: A549
SR = test system: SR
UACC-62 = test system: UACC-62
HCT-116 = test system: HCT-116
PC-3 = test system: PC-3
HL-60 = test system: HL-60
DU-145 = test system: DU-145
HOP-92 = test system: HOP-92
SF-268 = test system: SF-268
UO-31 = test system: UO-31
MOLT-4 = test system: MOLT-4

Structure (SMILES)	GI50 (TK-10)	GI50 (KM12)	GI50 (SK-MEL-5)	GI50 (SF-539)	GI50 (HCC 2998)	GI50 (OVCAR-5)	GI50 (SNB-19)	GI50 (HOP-62)	GI50 (CCRF-CEM)	GI50 (A549)	GI50 (SR)	GI50 (UACC-62)	GI50 (HCT-116)	GI50 (PC-3)	GI50 (HL-60)	GI50 (DU-145)	GI50 (HOP-92)	GI50 (SF-268)	GI50 (UO-31)	GI50 (MOLT-4)
O=C1/C(=C/c2ccccc2)CN(C(=O)CCN2CCOCC2)C/C1=C\c1ccccc1	11.9 µM (inactive)	1.6 µM (inactive)	2.17 µM (inactive)	2.06 µM (inactive)	1.87 µM (inactive)	7.36 µM (inactive)	5.45 µM (inactive)	8.45 µM (inactive)	1.38 µM (inactive)	7.16 µM (inactive)	1.06 µM (active)	1.88 µM (inactive)	0.778 µM (active)	2.75 µM (inactive)	1.32 µM (inactive)	16 µM (inactive)	9.79 µM (inactive)	2.87 µM (inactive)	8.97 µM (inactive)	2.58 µM (inactive)
N=C(N)N/N=C/c1c(-c2ccc([N+](=O)[O-])cc2)nc2sccn12	1.82 µM (inactive)	0.759 µM (active)	3.23 µM (inactive)	1.77 µM (inactive)	1.43 µM (inactive)	1.7 µM (inactive)	1.38 µM (inactive)	1.67 µM (inactive)	0.673 µM (active)	1.78 µM (inactive)	1.73 µM (inactive)	1.87 µM (inactive)	1.63 µM (inactive)	1.59 µM (inactive)	2.38 µM (inactive)	1.82 µM (inactive)	1.9 µM (inactive)	1.85 µM (inactive)	2.34 µM (inactive)	1.53 µM (inactive)
CCCCCCCC1c2cc3nc(cc4[nH]c(cc5nc(cc([nH]2)[C@@]1(C)CC(=O)N(C)C)C(C)=C5CCC(=O)O)c(CCC(=O)O)c4C)C=C3C (stereo not given in full)	37.2 µM (inactive)	24.9 µM (inactive)	29.7 µM (inactive)	18.9 µM (inactive)	20 µM (inactive)	25.5 µM (inactive)	20.6 µM (inactive)	20.5 µM (inactive)	18.8 µM (inactive)	50.2 µM (inactive)	19.9 µM (inactive)	18.5 µM (inactive)	17.1 µM (inactive)	23.8 µM (inactive)	23.7 µM (inactive)	21.4 µM (inactive)	21.2 µM (inactive)	20.8 µM (inactive)	18.2 µM (inactive)	
Cc1cccc2c1c(=O)c1c(O)cc3c(c1n2C)C=CC(C)(C)O3	64.9 µM (inactive)	70.3 µM (inactive)	75 µM (inactive)	> 100 µM (inactive)	> 100 µM (inactive)	> 100 µM (inactive)	> 100 µM (inactive)	> 100 µM (inactive)	> 100 µM (inactive)	> 100 µM (inactive)	> 100 µM (inactive)	> 100 µM (inactive)	> 100 µM (inactive)	> 100 µM (inactive)	> 100 µM (inactive)	> 100 µM (inactive)	> 100 µM (inactive)	> 100 µM (inactive)		> 100 µM (inactive)
O=C(Cl)C1=C(c2ccccc2)C1c1ccccc1 (stereo not given)	> 100 µM (inactive)	> 100 µM (inactive)	> 100 µM (inactive)	> 100 µM (inactive)	> 100 µM (inactive)	> 100 µM (inactive)	> 100 µM (inactive)	> 100 µM (inactive)	> 100 µM (inactive)	> 100 µM (inactive)	> 100 µM (inactive)	> 100 µM (inactive)	> 100 µM (inactive)	> 100 µM (inactive)	> 100 µM (inactive)	> 100 µM (inactive)	> 100 µM (inactive)	> 100 µM (inactive)		> 100 µM (inactive)
CC1OC(OCC2OC(Oc3ccc(C4CC(=O)c5c(O)cc(O)cc5O4)cc3O)C(O)C(O)C2O)C(O)C(O)C1O (stereo not given)	> 100 µM (inactive)	> 100 µM (inactive)	> 100 µM (inactive)	> 100 µM (inactive)	> 100 µM (inactive)	> 100 µM (inactive)	> 100 µM (inactive)	> 100 µM (inactive)	> 100 µM (inactive)	> 100 µM (inactive)	> 100 µM (inactive)	> 100 µM (inactive)	> 100 µM (inactive)	> 100 µM (inactive)	> 100 µM (inactive)	> 100 µM (inactive)	> 100 µM (inactive)	> 100 µM (inactive)	> 100 µM (inactive)	> 100 µM (inactive)
COc1cc(C2c3cc4c(cc3OC(O)C2C)OCO4)cc(OC)c1O (stereo not given)	6.95 µM (inactive)	4.76 µM (inactive)	4.66 µM (inactive)	6.28 µM (inactive)	10.9 µM (inactive)	46.8 µM (inactive)	11.6 µM (inactive)	10.7 µM (inactive)	5.19 µM (inactive)	7.64 µM (inactive)	2.9 µM (inactive)	3.49 µM (inactive)	3.95 µM (inactive)	8.49 µM (inactive)	2.92 µM (inactive)	23.5 µM (inactive)	15.9 µM (inactive)	15.8 µM (inactive)	21.3 µM (inactive)	4.45 µM (inactive)
Cc1ccc2c(c1)C(=O)/C(=C\c1ccccc1)CCS2(=O)=O	13.8 µM (inactive)	10.5 µM (inactive)	11.6 µM (inactive)	10.3 µM (inactive)	12.2 µM (inactive)	19 µM (inactive)	8.51 µM (inactive)	20.9 µM (inactive)	1.07 µM (active)	12.9 µM (inactive)	2.92 µM (inactive)	11.9 µM (inactive)	6.43 µM (inactive)	10.4 µM (inactive)	0.303 µM (active)	3.27 µM (inactive)	12.9 µM (inactive)	15.1 µM (inactive)	10.8 µM (inactive)	4.54 µM (inactive)
Cc1ccc(S(=O)(=O)c2c(O)c3ccc(O)c(C)c3oc2=O)cc1	> 100 µM (inactive)	> 100 µM (inactive)	> 100 µM (inactive)	> 100 µM (inactive)	> 100 µM (inactive)	> 100 µM (inactive)	> 100 µM (inactive)		> 100 µM (inactive)	> 100 µM (inactive)	> 100 µM (inactive)	> 100 µM (inactive)	> 100 µM (inactive)	> 100 µM (inactive)	23.4 µM (inactive)	> 100 µM (inactive)	> 100 µM (inactive)	> 100 µM (inactive)	> 100 µM (inactive)	> 100 µM (inactive)
CC(C)(C)OC(=O)c1ccc(NCC2=CC(=O)C=CC2=O)cc1	9.25 µM (inactive)	14.5 µM (inactive)	14.4 µM (inactive)	5.52 µM (inactive)	20 µM (inactive)	17.8 µM (inactive)	15.1 µM (inactive)	25.9 µM (inactive)	1.76 µM (inactive)	18.1 µM (inactive)	2.47 µM (inactive)	13.2 µM (inactive)	13.2 µM (inactive)	12 µM (inactive)	1.03 µM (active)	16.1 µM (inactive)	1.93 µM (inactive)	11.5 µM (inactive)	7.11 µM (inactive)	1.97 µM (inactive)
O=C(NN1CCCCC1)c1cc2cc(CCl)ccc2oc1=O	17 µM (inactive)	22.1 µM (inactive)	17.7 µM (inactive)	27.4 µM (inactive)	13.9 µM (inactive)	17.2 µM (inactive)	23.6 µM (inactive)	19.4 µM (inactive)	17.2 µM (inactive)	19.6 µM (inactive)	21.2 µM (inactive)	27.7 µM (inactive)	18.2 µM (inactive)	14.8 µM (inactive)	16.5 µM (inactive)	29.4 µM (inactive)	10.4 µM (inactive)	16.4 µM (inactive)	18.5 µM (inactive)	22.2 µM (inactive)
O=c1ccc(-c2ccc(-n3ccnc3)cc2)nn1CCO	> 100 µM (inactive)	> 100 µM (inactive)	> 100 µM (inactive)	> 100 µM (inactive)	> 100 µM (inactive)	> 100 µM (inactive)	> 100 µM (inactive)	> 100 µM (inactive)	> 100 µM (inactive)	> 100 µM (inactive)	> 100 µM (inactive)	> 100 µM (inactive)	> 100 µM (inactive)	> 100 µM (inactive)	> 100 µM (inactive)	> 100 µM (inactive)	> 100 µM (inactive)	> 100 µM (inactive)	> 100 µM (inactive)	> 100 µM (inactive)
O=[N+]([O-])c1cc2oc(COc3ccccc3)nc2cc1Cl	35 µM (inactive)	20.9 µM (inactive)	12.7 µM (inactive)	19.1 µM (inactive)	20 µM (inactive)	28.4 µM (inactive)	38.8 µM (inactive)	20.4 µM (inactive)	27.5 µM (inactive)	33.5 µM (inactive)	29.4 µM (inactive)	17.1 µM (inactive)	19 µM (inactive)	38.4 µM (inactive)	38.1 µM (inactive)	32.3 µM (inactive)	22.5 µM (inactive)	47.4 µM (inactive)	27.2 µM (inactive)	22.2 µM (inactive)
CC(C)C(NC(=O)CNC(=O)C1CCCN1C(=O)C(NC(=O)OC(C)(C)C)C(C)C)C(=O)NCC(=O)OCc1ccccc1 (stereo not given) (Boc-VPGVG-OBn; configuration not given here)		> 100 µM (inactive)	24.5 µM (inactive)	> 100 µM (inactive)	> 100 µM (inactive)	> 100 µM (inactive)	> 100 µM (inactive)	> 100 µM (inactive)	> 100 µM (inactive)	> 100 µM (inactive)	> 100 µM (inactive)	> 100 µM (inactive)	> 100 µM (inactive)	> 100 µM (inactive)	> 100 µM (inactive) and 72.8 µM (inactive)	> 100 µM (inactive)	> 100 µM (inactive)	> 100 µM (inactive)	> 100 µM (inactive)	> 100 µM (inactive)
